pIC50, pKi: −log10 of the molar value. Like-named read-outs stand apart in the source and are kept apart here.
What was measured:
Akt3 human enzyme = molecular target: T1, Akt3 human enzyme (Homo sapiens, UniProt Q9Y243); test: Akt3 inhibition assay (IMAP FP); format: biochemical;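 further: kinase reaction run 60 min at room temperature after 30 µM ATP start, phosphorylated substrate captured on IMAP beads and read as fluorescence polarization (mP)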
T1 construct: purchased Upstate Chemicon 14-502

p70S6K human enzyme = molecular target: T2, p70S6K human enzyme (Homo sapiens, UniProt P23443, T412E); test: p70S6K inhibition assay (IMAP FP); format: biochemical;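 further: kinase reaction run at room temperature, phosphorylated substrate captured on IMAP beads and read as fluorescence polarization in mP, IC50 then converted to Ki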
T2 construct: purchased Upstate Chemicon 14-486
T2 sequence (P23443 1-421 T412E limits assumed): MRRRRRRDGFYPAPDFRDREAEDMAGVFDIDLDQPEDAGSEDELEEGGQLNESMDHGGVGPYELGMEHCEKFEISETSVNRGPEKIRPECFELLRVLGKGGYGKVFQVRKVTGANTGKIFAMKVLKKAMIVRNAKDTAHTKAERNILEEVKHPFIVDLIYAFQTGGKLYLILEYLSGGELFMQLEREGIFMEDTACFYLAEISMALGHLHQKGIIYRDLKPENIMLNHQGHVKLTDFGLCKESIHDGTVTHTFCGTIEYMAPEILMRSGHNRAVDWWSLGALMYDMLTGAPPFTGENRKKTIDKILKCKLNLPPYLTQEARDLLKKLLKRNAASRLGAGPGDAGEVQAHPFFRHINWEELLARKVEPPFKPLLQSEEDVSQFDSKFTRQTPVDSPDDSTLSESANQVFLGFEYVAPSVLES

[1] = system: A-10 rat thoracic aorta cells; test: PDGF-stimulated smooth muscle cell proliferation assay (BrdU incorporation); format: cell-based; conditions: A-10 cells, 10 ng/mL PDGF, BrdU incorporation, percent of total challenge-stimulated proliferation; for Percent of PDGF Induced Proliferation at 1 μM Avg: 1 μM test compound; for Percent of PDGF Induced Proliferation at 10 μM Avg: 10 μM test compound;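 on all read-outs here: cells kept in serum-free medium, BrdU allowed to incorporate for 24 h, then incorporated label detected fluorometrically with an anti-BrdU antibody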
ROCK2 = molecular target: T3, ROCK2 (Homo sapiens, UniProt O75116); test: Rho kinase inhibition assay (IMAP fluorescence polarization), ROCK2; format: biochemical;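 further: kinase reaction started with 10 µM ATP and run 60 min at room temperature, then phosphorylated substrate captured on IMAP beads for 30 min and fluorescence polarization read in mP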
T3 construct: purchased Upstate/Chemicon 14-451
T3 sequence (O75116 11-552 limits assumed): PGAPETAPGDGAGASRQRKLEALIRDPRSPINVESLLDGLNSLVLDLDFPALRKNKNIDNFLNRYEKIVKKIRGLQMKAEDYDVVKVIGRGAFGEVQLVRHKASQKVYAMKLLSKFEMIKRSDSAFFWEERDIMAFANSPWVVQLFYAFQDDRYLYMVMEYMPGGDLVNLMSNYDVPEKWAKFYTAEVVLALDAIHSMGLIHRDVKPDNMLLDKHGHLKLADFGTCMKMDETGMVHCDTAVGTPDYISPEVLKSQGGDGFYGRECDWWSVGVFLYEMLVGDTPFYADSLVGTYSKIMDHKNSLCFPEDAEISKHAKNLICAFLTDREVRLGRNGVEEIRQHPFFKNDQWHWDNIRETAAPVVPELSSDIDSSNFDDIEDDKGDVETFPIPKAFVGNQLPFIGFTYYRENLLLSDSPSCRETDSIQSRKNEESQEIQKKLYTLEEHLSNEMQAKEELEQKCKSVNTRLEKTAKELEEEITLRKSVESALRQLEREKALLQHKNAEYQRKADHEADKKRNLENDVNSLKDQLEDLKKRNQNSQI
Description: (§1) Following the pre-incubation, 10 μM ATP was added to initiate the reaction. After 60 minutes at room temperature, Molecular Devices IMAP™ binding solution was added to bind phosphorylated substrate. After 30 minutes of incubation in the presence of the IMAP™ beads, the fluorescence polarization was read and the ratio was reported as mP. IC50 values for compounds and EC50 values for ATP were calculated using the Prism software from Graphpad.

[2] = Compound plasma concentrations in unsensitized mice at 15 min post administration; format: in vivo; conditions: mouse, 15 μmol/kg; mean compound plasma concentration in mice at 15 minutes post oral administration; read-out: Mouse Oral PK
Description: Additionally, compound concentrations were determined in the plasma and lungs of male, ovalbumin-sensitized, Balb/c mice from a murine model of asthma. Test compounds were formulated in water or 1% polysorbate 80 and dosed at 15 μmol/kg for intraperitoneal (IP) or oral (PO) administration or formulated for intratracheal (IT) administration and dosed at 5 μmol/kg, which directly targets the lungs. Following completion of the in vivo study, mice were euthanized and blood and plasma collected approximately 2.5-3 hours post administration of test compound for bronchodialator (BD) studies and 24 hours post administration for anti-inflamatory (AI) studies. Lungs were homogenized in Matrix A lysing tubes using a FastPrep 24 tissue and cell homogenizer (MP Biomedicals, Solon, Ohio). Both plasma samples and lung extracts were assayed for compound concentrations using an on-line, solid phase extraction LC/MS/MS system.

ROCK1 = molecular target: T4, ROCK1 (Homo sapiens, UniProt Q13464); test: Rho kinase inhibition assay (IMAP fluorescence polarization), ROCK1; format: biochemical;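 further: kinase reaction run 60 min at room temperature, then phosphorylated substrate captured on IMAP beads for 30 min, with fluorescence polarization read in mP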
T4 construct: purchased Upstate/Chemicon 14-601
T4 sequence (Q13464 17-535 limits assumed): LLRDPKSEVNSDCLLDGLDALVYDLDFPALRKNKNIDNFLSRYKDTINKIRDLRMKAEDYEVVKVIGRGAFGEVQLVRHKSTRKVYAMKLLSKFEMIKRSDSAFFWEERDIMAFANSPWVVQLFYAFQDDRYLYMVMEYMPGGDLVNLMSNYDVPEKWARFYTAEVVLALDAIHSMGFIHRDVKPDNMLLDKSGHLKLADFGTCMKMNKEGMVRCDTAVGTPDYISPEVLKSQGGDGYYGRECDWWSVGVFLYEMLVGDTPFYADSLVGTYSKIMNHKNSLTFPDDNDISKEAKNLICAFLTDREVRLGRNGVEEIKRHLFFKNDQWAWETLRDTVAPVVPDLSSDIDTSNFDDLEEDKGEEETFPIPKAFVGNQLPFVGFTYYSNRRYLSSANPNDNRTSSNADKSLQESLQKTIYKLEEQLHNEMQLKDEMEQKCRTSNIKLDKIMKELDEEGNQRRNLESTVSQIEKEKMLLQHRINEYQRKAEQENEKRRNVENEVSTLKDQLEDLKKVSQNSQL
Description: as §1

[3] = Rat oral pharmacokinetics (plasma); format: in vivo; conditions: 20-30 μmol/kg; for half-life: mean n = 3, read-out: t½ (converted)
Description: Plasma (EDTA K2 anticoagulant) was collected from male, cannulated, CD Sprague Dawley rats to determine the pharmacokinetics of formulations containing compound inhibitors of Rho kinase. Each animal was dosed orally with a 4 ml/kg solution or suspension of each test compound in 10 mM acetate buffered saline, pH 4.5 at a final concentration range of 20-30 μmol/kg. Blood was collected at 0.25, 0.5, 1, 2, 4, 6, 8, and 24 hours. Plasma samples were assayed for the concentration of the test compound using an on-line, solid phase extraction LC/MS/MS analysis system.
Samples were analyzed on a QSTAR Elite, hybrid quadrupole time-of-flight mass spectrometer (Applied Biosystems, Framingham, Mass.) coupled with a Symbiosis Pharma integrated, on-line SPE-HPLC system (Spark Holland Inc., Plainsboro, N.J.). Analyst QS 2.0 software was used for instrument control, data acquisition and processing. […] Mobile Phase A consisted of 0.1% ammonium hydroxide in water and Mobile Phase B consisted of 0.1% formic acid in acetonitrile. Pharmacokinetic analyses were performed using WinNonlin software version 5.2 (Pharsight Corporation, Mountain View, Calif.).
As determined from the plasma concentration versus time curves, the time to peak and peak exposure are represented by the values Tmax and Cmax, respectively. The AUC values (nM*hr) shown were calculated as the areas under the plasma concentration versus time curves from time zero through the time of the last observable value and represent the total exposure of the compound over the course of the study. Half-life values or the amount of time required for the plasma levels of the compound to decline to half the initial value are represented as t½.

human neutrophils = test: Human neutrophil chemotaxis induced by fMLP (modified Boyden chamber); format: cell-based
From the text: This assay is an in vitro assay of neutrophil chemotaxis that can be used to evaluate the ability of Rho Kinase inhibitor compounds of Formula I or II to inhibit the migration of human neutrophils, an inflammatory cell that has been implicated in the pathophysiology of allergic conjunctivitis.
Peripheral blood from healthy human volunteers was collected and the neutrophils were isolated by Ficoll-paque density centrifugation followed by dextran sedimentation and hypotonic lysis of the red blood cells. Neutrophil chemotaxis was assessed using a modified Boyden Chamber (Neuroprobe, 96-well) with a 3 μm pore polycarbonate membrane. The ability of the tested compounds to block chemotaxis induced by a 1 μM fMLP challenge during a one hour incubation at 37° C. with 5% CO2 was assessed in a dose response manner.

[4] = 30 μM ATP, Ki=IC50/(1+([ATP Challenge]/EC50 ATP)), read-out: Akt3 Ki, Avg
[5] = 30 μM ATP, Ki=IC50/(1+([ATP Challenge]/EC50 ATP)), read-out: p70S6K Ki, Avg
[6] = average Ki, read-out: p70S6K Ki
[7] = 10 μM ATP, read-out: ROCK2 Ki, Avg
[8] = male, CD Sprague Dawley, mean n = 3
[9] = male, CD Sprague Dawley, mean n = 3, read-out: Cmax
[10] = male, CD Sprague Dawley, mean n = 3, read-out: Tmax
[11] = Neutrophil, 1 h, 1 μM fMLP challenge, one hour, read-out: Chemotaxis Avg. IC50
[12] = average IC50 for inhibition of fMLP-induced neutrophil chemotaxis, read-out: Chemotaxis IC50

T1 sequence (Q9Y243 whole entry): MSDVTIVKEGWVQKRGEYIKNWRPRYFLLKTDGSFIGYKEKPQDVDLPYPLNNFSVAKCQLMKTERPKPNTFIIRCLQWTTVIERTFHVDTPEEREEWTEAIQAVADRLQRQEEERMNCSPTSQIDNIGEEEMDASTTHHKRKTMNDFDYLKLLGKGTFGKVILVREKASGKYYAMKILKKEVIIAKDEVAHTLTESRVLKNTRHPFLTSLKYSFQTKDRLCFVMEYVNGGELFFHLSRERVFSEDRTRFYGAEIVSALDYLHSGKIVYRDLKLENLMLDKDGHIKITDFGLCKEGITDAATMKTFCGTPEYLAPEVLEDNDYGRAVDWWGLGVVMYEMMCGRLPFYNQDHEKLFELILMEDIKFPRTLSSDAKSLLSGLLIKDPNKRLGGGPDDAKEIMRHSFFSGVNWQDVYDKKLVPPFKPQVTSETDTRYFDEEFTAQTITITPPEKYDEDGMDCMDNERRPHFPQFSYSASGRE

Row | SMILES | pKi (Akt3 human enzyme; [4]) | pKi (Akt3 human enzyme; average Ki, read-out: Akt3 Ki) | pKi (p70S6K human enzyme; [5]) | pKi (p70S6K human enzyme; [6]) | pKi (ROCK2; [7]) | pKi (ROCK2; average Ki, read-out: ROCK2 Ki) | concentration at 15 min [2] [nM] | pKi (ROCK1; Avg, 10 μM ATP) | pKi (ROCK1; average Ki) | Vz_F ([3]; mean n = 3) | AUC(0-t) [3, 8] [µM·h] | Cmax [3, 9] [nM] | Tmax [3, 10] [min] | half-life ([3]; male, CD Sprague Dawley) [min] | pIC50 (human neutrophils; [11]) | pIC50 (human neutrophils; [12]) | also measured
1 | OCCn1ccc2ccc(CN3CCC[C@@H](Nc4ccc5[nH]ncc5c4)C3)cc21 [Compound 1.108, (R)-2-(6-((3-(1H-indazol-5-ylamino)piperidin-1-yl)methyl)-1H-indol-1-yl)ethanol] | 6.69 | 6.69 | 6.29 | 6.29 | 8.19 | 8.19 | 395 | 7.59 | 7.59 | 116 L/kg | 0.415 | 209 | 49.8 | 81.6 | – | – | Percent of PDGF Induced Proliferation at 1 μM Avg [1]: 83.1%; Percent of PDGF Induced Proliferation at 10 μM Avg [1]: 43.7%
2 | OCCOc1cccc(CN2CC[C@@H](Nc3cccc4cnccc34)C2)c1 [Compound 2.039, (R)-2-(3-((3-(isoquinolin-5-ylamino)pyrrolidin-1-yl)methyl)phenoxy)ethanol] | 5.70 | 5.70 | 6.00 | 6.00 | 8.17 | 8.17 | 92 | 7.73 | 7.73 | 59.4 L/kg | 0.905 | 783 | 19.8 | 67.8 | 5.78 | 5.80 | –
3 | Cc1ccc(CN2CC[C@@H](Nc3cccc4cnccc34)C2)cc1 [Compound 2.025, (R)-N-(1-(4-methylbenzyl)pyrrolidin-3-yl)isoquinolin-5-amine] | 6.01 | 6.01 | 6.30 | 6.30 | 8.54 | 8.54 | 74 | 8.16 | 8.16 | – | – | – | – | – | 5.78 | 5.77 | Percent of PDGF Induced Proliferation at 1 μM Avg [1]: 69.8%; Percent of PDGF Induced Proliferation at 10 μM Avg [1]: 68.0%
4 | CCc1ccc(CN2CCC[C@@H](Nc3ccc4[nH]ncc4c3)C2)cc1 [Compound 1.136, (R)-N-(1-(4-ethylbenzyl)piperidin-3-yl)-1H-indazol-5-amine] | 6.54 | 6.54 | 5.91 | 5.91 | 8.27 | 8.29 | – | 7.39 | 7.59 | BLQ | – | – | – | – | 5.59 | 5.59 | AUC (0-last) ([3]; mean n = 3): BLQ; Cmax ([3]; mean n = 3): BLQ; Tmax ([3]; mean n = 3): BLQ; t½ ([3]; mean n = 3): BLQ
5 | Cc1ccc(CN2CCC[C@H](Nc3cccc4cnccc34)C2)cc1 [Compound 2.045, (S)-N-(1-(4-methylbenzyl)piperidin-3-yl)isoquinolin-5-amine] | – | – | – | – | 7.06 | – | – | 7.04 | – | 226 L/kg | 0.456 | 223 | 40.2 | 95.4 | – | – | –
6 | O=S(=O)(c1cccc2cnccc12)N1CCCNCC1 [fasudil, reference compound] | – | – | – | – | – | – | – | – | – | – | – | – | – | – | 4.62 | – | –
7 | CS(=O)(=O)Nc1cccc(CN2CC[C@H](Nc3cccc4cnccc34)C2)c1 [Compound 2.035, (S)-N-(3-((3-(isoquinolin-5-ylamino)pyrrolidin-1-yl)methyl)phenyl)methanesulfonamide] | – | – | – | – | 6.69 | – | – | 6.22 | – | – | – | – | – | – | 5.18 | – | –
8 | CCS(=O)(=O)Nc1cccc(CN2CCC[C@@H](Nc3ccc4[nH]ncc4c3)C2)c1 [Compound 1.123, (R)-N-(3-((3-(1H-indazol-5-ylamino)piperidin-1-yl)methyl)phenyl)ethanesulfonamide] | 5.62 | 5.62 | 5.55 | 5.55 | 8.02 | 8.02 | 71 | 7.08 | 7.08 | 14.8 L/kg | 2.06 | 2040 | 19.8 | 54 | 5.52 | 5.51 | –

— patent US20090325959A1 (priority 2008, published 2009)
